The subject of data set [1] is Liver microsome. The data set is described as follows: Stability in rat liver microsomes after 30 mins. It counts as ADME. The note with it: 0.5 h. For orientation: Microsomes from liver hold many membrane-bound enzymes, among them those of drug oxidation.
Data set [2] is described as follows: Stability in simulated gastric fluid after 45 mins. It is filed as ADME. The note with it: simulated gi fluid, 0.75 h.
Data set [3] can be described thus: Stability in simulated intestinal fluid after 45 mins. The note with it: simulated gi fluid, 0.75 h. It counts as ADME.
For data set [4], the target named is T1, Serine/threonine-protein kinase mTOR (Homo sapiens, UniProt P42345). The data set is described as follows: Inhibition of human mTOR using ULight-4E-BP1 peptide as substrate after 1 hr by Lance ultra assay.
In data set [5] the target is T2, Phosphatidylinositol 4,5-bisphosphate 3-kinase catalytic subunit alpha isoform (Homo sapiens, UniProt P42336). The data set is described as follows: Inhibition of human recombinant PI3Kalpha using PIP2 as substrate at 1 uM after 1 hr by Kinase-Glo luminescent assay. On the technique in general: Kinase-Glo reads ATP consumption through a luciferase reaction.
The target in data set [6] is T3, Phosphatidylinositol 4,5-bisphosphate 3-kinase catalytic subunit beta isoform (Homo sapiens, UniProt P42338). As to the kind of experiment: Inhibition of PI3Kbeta (unknown origin) at 1 uM after 1 hr by ADP-Glo luminescent assay. For orientation: In ADP-Glo the light output rises with the ADP produced.
Target sequence in this assay (P42338 whole entry, looked up, canonical isoform): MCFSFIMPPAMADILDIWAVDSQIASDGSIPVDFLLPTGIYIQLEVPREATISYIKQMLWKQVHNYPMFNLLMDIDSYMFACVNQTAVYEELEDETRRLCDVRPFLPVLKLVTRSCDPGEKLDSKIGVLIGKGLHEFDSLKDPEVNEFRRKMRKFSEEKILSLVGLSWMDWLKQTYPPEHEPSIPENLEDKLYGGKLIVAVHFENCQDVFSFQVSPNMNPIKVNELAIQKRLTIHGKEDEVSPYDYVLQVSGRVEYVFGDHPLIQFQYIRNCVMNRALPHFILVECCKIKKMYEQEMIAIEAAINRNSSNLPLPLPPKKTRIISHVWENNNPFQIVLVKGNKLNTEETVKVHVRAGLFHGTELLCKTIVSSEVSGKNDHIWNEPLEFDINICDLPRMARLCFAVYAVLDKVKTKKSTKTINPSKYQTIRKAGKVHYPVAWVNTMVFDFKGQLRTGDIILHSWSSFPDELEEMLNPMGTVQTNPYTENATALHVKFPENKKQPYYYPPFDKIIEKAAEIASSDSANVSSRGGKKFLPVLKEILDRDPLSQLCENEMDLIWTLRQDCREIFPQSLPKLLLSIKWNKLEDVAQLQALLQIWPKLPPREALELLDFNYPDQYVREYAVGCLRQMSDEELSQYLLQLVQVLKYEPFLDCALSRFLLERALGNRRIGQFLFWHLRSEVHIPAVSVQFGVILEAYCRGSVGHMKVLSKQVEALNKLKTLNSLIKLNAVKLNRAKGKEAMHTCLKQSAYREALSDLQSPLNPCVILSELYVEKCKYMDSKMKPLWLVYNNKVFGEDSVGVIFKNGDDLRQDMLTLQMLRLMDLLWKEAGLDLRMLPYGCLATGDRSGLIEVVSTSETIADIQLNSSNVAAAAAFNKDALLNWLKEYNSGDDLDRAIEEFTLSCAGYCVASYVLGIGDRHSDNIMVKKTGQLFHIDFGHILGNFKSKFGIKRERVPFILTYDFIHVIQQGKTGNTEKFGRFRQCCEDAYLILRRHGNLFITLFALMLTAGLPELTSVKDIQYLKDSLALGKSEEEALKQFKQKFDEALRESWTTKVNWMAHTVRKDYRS
Data set [7] has as its target T4, Phosphatidylinositol 4,5-bisphosphate 3-kinase catalytic subunit gamma isoform (Homo sapiens, UniProt P48736). The data set is described as follows: Inhibition of human PI3Kgamma at 1 uM after 1 hr by ADP-Glo luminescent assay.
Target sequence in this assay (P48736 whole entry, looked up, canonical isoform): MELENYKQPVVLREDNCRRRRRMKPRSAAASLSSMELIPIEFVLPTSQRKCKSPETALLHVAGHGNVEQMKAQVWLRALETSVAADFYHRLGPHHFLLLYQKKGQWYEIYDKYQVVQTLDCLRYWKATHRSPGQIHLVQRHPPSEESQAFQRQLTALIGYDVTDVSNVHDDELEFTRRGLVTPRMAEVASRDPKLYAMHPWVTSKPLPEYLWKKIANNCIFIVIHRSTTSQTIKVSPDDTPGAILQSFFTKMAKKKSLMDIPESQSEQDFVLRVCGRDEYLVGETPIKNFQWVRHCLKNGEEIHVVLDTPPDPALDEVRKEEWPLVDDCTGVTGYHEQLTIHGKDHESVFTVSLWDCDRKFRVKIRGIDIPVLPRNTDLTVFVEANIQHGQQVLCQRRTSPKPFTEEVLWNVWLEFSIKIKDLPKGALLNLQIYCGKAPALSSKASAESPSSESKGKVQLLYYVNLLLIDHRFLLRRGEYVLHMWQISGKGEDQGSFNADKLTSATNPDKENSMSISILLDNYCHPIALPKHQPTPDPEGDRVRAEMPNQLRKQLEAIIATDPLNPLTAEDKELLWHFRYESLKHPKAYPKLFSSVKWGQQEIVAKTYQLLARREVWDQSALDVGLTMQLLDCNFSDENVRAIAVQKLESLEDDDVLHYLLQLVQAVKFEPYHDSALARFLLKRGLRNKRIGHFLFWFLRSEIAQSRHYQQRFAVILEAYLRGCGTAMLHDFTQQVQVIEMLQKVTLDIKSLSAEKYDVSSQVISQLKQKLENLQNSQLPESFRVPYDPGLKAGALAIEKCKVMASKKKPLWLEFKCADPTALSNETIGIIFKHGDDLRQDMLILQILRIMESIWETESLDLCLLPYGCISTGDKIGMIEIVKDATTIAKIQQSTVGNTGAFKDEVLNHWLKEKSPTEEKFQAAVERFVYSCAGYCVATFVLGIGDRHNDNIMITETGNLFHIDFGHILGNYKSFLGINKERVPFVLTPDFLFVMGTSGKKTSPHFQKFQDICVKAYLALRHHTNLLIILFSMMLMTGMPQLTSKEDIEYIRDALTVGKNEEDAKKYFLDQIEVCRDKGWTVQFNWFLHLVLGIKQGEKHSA
The target of data set [8] is T5, Phosphatidylinositol 4,5-bisphosphate 3-kinase catalytic subunit delta isoform (Homo sapiens) (UniProt O00329).
T5 sequence (whole entry): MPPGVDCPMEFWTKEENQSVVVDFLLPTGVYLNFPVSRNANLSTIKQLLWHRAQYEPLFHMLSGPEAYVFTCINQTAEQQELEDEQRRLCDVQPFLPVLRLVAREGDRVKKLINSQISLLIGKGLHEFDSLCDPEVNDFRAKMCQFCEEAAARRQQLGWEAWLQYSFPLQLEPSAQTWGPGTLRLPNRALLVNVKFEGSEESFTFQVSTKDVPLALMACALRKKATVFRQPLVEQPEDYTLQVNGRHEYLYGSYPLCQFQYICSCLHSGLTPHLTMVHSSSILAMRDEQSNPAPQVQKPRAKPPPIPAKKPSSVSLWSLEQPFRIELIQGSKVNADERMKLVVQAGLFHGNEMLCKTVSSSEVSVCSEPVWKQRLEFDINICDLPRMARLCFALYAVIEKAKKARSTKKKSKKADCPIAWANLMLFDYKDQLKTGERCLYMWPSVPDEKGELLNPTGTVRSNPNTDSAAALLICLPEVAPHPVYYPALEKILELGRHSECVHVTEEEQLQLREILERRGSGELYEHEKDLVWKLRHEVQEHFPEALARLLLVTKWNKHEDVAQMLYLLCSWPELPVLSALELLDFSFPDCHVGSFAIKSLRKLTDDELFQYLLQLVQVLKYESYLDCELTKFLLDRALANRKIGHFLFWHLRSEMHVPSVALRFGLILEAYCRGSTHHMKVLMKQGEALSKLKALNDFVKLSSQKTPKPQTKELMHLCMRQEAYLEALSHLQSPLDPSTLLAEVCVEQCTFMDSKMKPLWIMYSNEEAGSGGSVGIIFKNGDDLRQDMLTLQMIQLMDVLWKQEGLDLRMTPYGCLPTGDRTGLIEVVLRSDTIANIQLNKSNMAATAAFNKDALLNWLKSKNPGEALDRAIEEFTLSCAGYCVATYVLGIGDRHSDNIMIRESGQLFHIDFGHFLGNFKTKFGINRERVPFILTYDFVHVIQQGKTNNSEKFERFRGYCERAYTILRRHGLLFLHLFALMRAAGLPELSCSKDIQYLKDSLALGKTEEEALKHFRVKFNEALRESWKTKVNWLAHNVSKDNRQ
As to the kind of experiment: Inhibition of PI3Kdelta (unknown origin) at 1 uM after 1 hr by ADP-Glo luminescent assay.

The nature of data set [9]: cells. The note with it: Homo sapiens, HCT-116, 72 h.
A short description of data set [10]: cells. The note with it: Homo sapiens, PC-3, 72 h.
In data set [11] the test system is MCF7. The data set is described as follows: cells. The note with it: Homo sapiens, MCF7, 72 h.
For data set [12], the target named is T2, Phosphatidylinositol 4,5-bisphosphate 3-kinase catalytic subunit alpha isoform. The data set is described as follows: Inhibition of human recombinant PI3Kalpha using PIP2 as substrate after 1 hr by Kinase-Glo luminescent assay.
In data set [13] the target is T3, Phosphatidylinositol 4,5-bisphosphate 3-kinase catalytic subunit beta isoform. As to the kind of experiment: Inhibition of PI3Kbeta (unknown origin) after 1 hr by ADP-Glo luminescent assay.
Target sequence in this assay (P42338 whole entry, canonical isoform): as the sequence (P42338 whole entry, looked up, canonical isoform) above
Data set [14] deals with T4, Phosphatidylinositol 4,5-bisphosphate 3-kinase catalytic subunit gamma isoform. As to the kind of experiment: Inhibition of human PI3Kgamma after 1 hr by ADP-Glo luminescent assay.
Target sequence in this assay (P48736 whole entry, canonical isoform): as the sequence (P48736 whole entry, looked up, canonical isoform) above
Data set [15] addresses T6, Phosphatidylinositol 4,5-bisphosphate 3-kinase catalytic subunit delta isoform (Homo sapiens, UniProt O00329).
T6 sequence (O00329 whole entry): T5 sequence (whole entry)
The data set is described as follows: Inhibition of PI3Kdelta (unknown origin) after 1 hr by ADP-Glo luminescent assay.

The target of data set [16] is T7, mTORC1 (Homo sapiens) (UniProt P42345+Q8N122+Q9BVC4). The data set is described as follows: Inhibition of mTORC1 in human MCF7 cells assessed as downregulation of S6 Ser235 phosphorylation at 0.5 uM after 2 hrs by Western blot analysis. It is filed as cell-based.
For data set [17], the system named is MCF7. The data set is described as follows: Inhibition of mTORC2 in human MCF7 cells assessed as downregulation of Akt Ser473 phosphorylation at 0.5 uM after 2 hrs by Western blot analysis. It is filed as cell-based.
Data set [18] deals with T7, mTORC1 (Homo sapiens). As to the kind of experiment: Inhibition of mTORC1 in human MCF7 cells assessed as downregulation of S6 Ser235 phosphorylation at 0.1 uM after 2 hrs by Western blot analysis. It counts as cell-based.
For data set [19], the system named is MCF7. As to the kind of experiment: Inhibition of mTORC2 in human MCF7 cells assessed as downregulation of Akt Ser473 phosphorylation at 0.1 uM after 2 hrs by Western blot analysis. It is filed as cell-based.
For data set [20], the target named is T1, Serine/threonine-protein kinase mTOR. The data set is described as follows: Inhibition of human mTOR at 3000 nM using ULight-4E-BP1 peptide as substrate after 1 hr by Lance ultra assay.

The structures appear in SMILES notation. Active and inactive are the calls of the source. The calls are words filed in the database; no cut-off is given here.

For orientation: IC50 means the midpoint of a concentration-inhibition curve. A word on the inhibition: it is the share of the control response that was lost under treatment.

T7 sequence (Q8N122 whole entry, looked up, other chains not shown): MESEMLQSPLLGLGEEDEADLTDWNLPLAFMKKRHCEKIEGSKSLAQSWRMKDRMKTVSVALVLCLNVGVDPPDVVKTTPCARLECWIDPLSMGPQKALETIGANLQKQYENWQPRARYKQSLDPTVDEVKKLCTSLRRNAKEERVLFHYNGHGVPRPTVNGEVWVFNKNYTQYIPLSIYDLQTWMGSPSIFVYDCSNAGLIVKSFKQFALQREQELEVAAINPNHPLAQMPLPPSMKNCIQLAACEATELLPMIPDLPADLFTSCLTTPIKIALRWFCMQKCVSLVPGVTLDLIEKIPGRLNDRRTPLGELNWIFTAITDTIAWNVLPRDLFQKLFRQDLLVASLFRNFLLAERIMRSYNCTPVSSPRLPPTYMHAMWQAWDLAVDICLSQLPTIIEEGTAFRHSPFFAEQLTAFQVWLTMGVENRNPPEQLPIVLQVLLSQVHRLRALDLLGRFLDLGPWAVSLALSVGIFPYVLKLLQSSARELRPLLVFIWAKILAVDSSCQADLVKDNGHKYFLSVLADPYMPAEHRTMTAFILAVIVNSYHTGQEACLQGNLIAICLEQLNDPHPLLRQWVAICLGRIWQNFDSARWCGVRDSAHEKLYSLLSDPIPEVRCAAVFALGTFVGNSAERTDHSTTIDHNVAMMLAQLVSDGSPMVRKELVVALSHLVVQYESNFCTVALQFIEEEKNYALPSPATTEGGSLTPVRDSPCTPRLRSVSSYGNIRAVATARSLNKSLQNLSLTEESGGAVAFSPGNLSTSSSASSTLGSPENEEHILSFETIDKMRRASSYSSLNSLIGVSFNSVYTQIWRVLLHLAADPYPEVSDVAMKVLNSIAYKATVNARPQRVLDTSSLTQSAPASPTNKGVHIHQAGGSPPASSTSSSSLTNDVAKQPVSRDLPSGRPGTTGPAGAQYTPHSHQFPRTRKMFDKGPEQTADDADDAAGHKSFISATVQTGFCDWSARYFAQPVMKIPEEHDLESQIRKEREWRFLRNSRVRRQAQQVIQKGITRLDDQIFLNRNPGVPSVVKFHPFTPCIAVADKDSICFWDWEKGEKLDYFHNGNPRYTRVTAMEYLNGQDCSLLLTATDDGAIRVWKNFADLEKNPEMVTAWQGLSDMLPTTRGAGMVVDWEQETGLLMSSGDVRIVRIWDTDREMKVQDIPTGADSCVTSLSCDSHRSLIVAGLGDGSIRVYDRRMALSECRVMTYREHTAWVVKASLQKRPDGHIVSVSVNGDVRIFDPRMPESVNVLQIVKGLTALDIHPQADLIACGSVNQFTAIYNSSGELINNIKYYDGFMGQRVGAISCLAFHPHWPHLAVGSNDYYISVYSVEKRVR
T7 sequence (Q9BVC4 whole entry, looked up, other chains not shown): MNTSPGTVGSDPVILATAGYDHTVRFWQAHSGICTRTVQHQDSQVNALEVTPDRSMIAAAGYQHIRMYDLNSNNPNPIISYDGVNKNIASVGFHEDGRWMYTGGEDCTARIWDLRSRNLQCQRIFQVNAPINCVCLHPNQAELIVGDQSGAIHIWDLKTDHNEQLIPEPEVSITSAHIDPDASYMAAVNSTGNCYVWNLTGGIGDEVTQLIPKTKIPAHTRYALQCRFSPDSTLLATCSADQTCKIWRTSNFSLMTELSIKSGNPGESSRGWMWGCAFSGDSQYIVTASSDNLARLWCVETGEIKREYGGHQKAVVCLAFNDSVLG
T2 sequence (P42336 whole entry, canonical isoform): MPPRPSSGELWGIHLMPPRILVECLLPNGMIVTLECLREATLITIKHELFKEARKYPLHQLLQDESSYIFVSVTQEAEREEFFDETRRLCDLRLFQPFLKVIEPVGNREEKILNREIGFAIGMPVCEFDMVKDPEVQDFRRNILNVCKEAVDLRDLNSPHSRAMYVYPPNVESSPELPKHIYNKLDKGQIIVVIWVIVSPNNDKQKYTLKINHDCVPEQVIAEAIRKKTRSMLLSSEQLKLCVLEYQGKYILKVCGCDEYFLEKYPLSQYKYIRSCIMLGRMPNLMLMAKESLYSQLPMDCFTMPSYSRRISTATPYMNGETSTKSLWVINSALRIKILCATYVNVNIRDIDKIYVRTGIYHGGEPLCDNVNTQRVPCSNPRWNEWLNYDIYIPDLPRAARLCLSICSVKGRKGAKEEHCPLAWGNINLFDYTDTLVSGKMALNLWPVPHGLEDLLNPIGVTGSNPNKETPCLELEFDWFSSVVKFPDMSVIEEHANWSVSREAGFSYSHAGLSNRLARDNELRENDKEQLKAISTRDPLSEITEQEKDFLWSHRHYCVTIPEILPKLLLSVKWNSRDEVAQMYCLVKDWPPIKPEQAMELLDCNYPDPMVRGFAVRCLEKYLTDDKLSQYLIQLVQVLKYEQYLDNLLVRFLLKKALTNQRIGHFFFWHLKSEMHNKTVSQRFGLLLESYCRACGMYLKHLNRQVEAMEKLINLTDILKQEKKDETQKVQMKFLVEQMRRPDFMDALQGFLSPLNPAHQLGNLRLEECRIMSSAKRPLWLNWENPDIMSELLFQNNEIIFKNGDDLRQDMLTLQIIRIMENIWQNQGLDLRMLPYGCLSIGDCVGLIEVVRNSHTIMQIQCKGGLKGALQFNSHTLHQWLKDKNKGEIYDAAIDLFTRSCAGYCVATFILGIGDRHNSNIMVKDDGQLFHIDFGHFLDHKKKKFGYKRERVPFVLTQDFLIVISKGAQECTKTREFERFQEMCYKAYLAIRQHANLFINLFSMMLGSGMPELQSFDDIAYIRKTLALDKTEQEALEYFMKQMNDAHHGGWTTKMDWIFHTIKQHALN

As for `CC(=O)Nc1cnc2ccc(-c3cnc4ccccc4c3)cc2c1Nc1ccc(N2CCNCC2)c(C(F)(F)F)c1.Cl`, the Stability result in [1], in data set [2] and in data set [3] was “Stable” in each case. In addition, the 50% inhibitory concentration (IC50) in data set [4] was determined as 22 nM; in data set [9], 360 nM; in data set [10], 500 nM; in data set [11], 110 nM. The inhibition in data set [5] amounted to 42.1%; in data set [6], 1%; in [7], 47.3%; in data set [8], 34.9%.

As for `CC(C)(C)C(=O)Nc1cnc2ccc(-c3cnc4ccccc4c3)cc2c1Nc1ccc(N2CCNCC2)c(C(F)(F)F)c1`, the figures for the IC50 in data set [9], in data set [10] and in data set [11] were 640 nM, 1050 nM and 300 nM, respectively.

Turning to `CC(=O)Nc1cnc2ccc(-c3cnc4ccccc4c3)cc2c1Nc1ccc(N2CCN(S(C)(=O)=O)CC2)c(C(F)(F)F)c1`, the concentration for half-maximal inhibition (IC50) in data set [9] amounted to 430 nM; in [10], 190 nM; in [11], 60 nM.

As to `CC(=O)N1CCN(c2ccc(Nc3c(NC(=O)C(C)(C)C)cnc4ccc(-c5cnc6ccccc6c5)cc34)cc2C(F)(F)F)CC1`, the IC50 was greater than 10000 nM in data set [9], greater than 10000 nM in [10] and 790 nM in data set [11].

With `CC(=O)Nc1cnc2ccc(-c3cnc4ccccc4c3)cc2c1Nc1ccc(N2CCN(C(C)=O)CC2)c(C(F)(F)F)c1`, the IC50 is 30 nM in data set [4]; 1500 nM in data set [12]; greater than 5000 nM in data set [13]; 502 nM in data set [14]; 2080 nM in data set [15]; 110 nM in [9]. The IC50 in data set [10] turned out to be 170 nM; in [11] it was 40 nM. For the same compound, the result in data set [16], in data set [17], in data set [18] and in data set [19] was Active.

Regarding `Cn1c(=O)n(-c2ccc(C(C)(C)C#N)cc2)c2c3cc(-c4cnc5ccccc5c4)ccc3ncc21` [DACTOLISIB], the IC50 in [9] was 140 nM; in data set [10] it was 190 nM.

For the compound `COc1cc(Nc2c(NC(C)=O)cnc3ccc(-c4cnc5ccccc5c4)cc23)cc(OC)c1`, the IC50 was greater than 3000 nM in data set [4], greater than 10000 nM in data set [9] and greater than 10000 nM in [10].

With `CS(=O)(=O)Nc1cnc2ccc(-c3cnc4ccccc4c3)cc2c1Nc1ccc(N2CCNCC2)c(C(F)(F)F)c1`, the IC50 is 1450 nM in data set [9], 5420 nM in [10] and 1110 nM in data set [11].

With `CC(C)(C)C(=O)Nc1cnc2ccc(-c3cnc4ccccc4c3)cc2c1Nc1ccc(C(C)(C)C#N)cc1`, the IC50 in data set [9] and in data set [10] was greater than 10000 nM throughout.

`CC(C)(C#N)c1ccc(Nc2c(NC(=O)C(F)(F)F)cnc3ccc(-c4cnc5ccccc5c4)cc23)cc1`: in data set [20], the inhibition came to 92%. For the same compound, the IC50 in data set [9] was greater than 10000 nM; in [10] it was greater than 10000 nM; in [11] it was 1360 nM.

Regarding `CC(C)(C#N)c1ccc(Nc2c(N(S(C)(=O)=O)S(C)(=O)=O)cnc3ccc(-c4cnc5ccccc5c4)cc23)cc1`, the IC50 in data set [9] and in data set [10] was greater than 10000 nM in each case.

Regarding `O=C(Nc1cnc2ccc(-c3cnc4ccccc4c3)cc2c1Nc1ccc(N2CCNCC2)c(C(F)(F)F)c1)C(F)(F)F`, the IC50 in data set [9] was determined as 1240 nM; in [10], 3820 nM; in data set [11], 320 nM.

In the case of `CC(=O)Nc1cnc2ccc(-c3cnc4ccccc4c3)cc2c1Nc1ccc(C(F)(F)F)cc1`, the results for the IC50 in [4], in data set [9] and in [10] were greater than 3000 nM, greater than 10000 nM and greater than 10000 nM, respectively.

For `Nc1cnc2ccc(-c3cnc4ccccc4c3)cc2c1Nc1ccc(N2CCNCC2)c(C(F)(F)F)c1`, the IC50 was found to be 1610 nM in data set [9], 3440 nM in data set [10] and 470 nM in data set [11].

Regarding `CC(C)(C#N)c1ccc(Nc2c(NS(C)(=O)=O)cnc3ccc(-c4cnc5ccccc5c4)cc23)cc1`, the IC50 in data set [9] and in [10] was greater than 10000 nM in each case.

As to `CC(=O)Nc1cnc2ccc(-c3cnc4ccccc4c3)cc2c1Nc1ccc(C(C)(C)C#N)cc1`, the figures for the IC50 in data set [9], in data set [10] and in data set [11] were 3950 nM, 2560 nM and 440 nM, respectively.

Turning to `CC(=O)Nc1cnc2ccc(-c3cnc4ccccc4c3)cc2c1Nc1ccc(C#N)cc1`, the IC50 in data set [4] was greater than 3000 nM; in data set [9], greater than 10000 nM; in data set [10] it was greater than 10000 nM.

The values are drawn from ChEMBL document CHEMBL3779897, “Novel quinoline-derived mTOR inhibitors with remarkable enzymatic and cellular activities: design, synthesis and biological evaluation” (Medchemcomm, 2016).
